Molecules are shown by their SMILES.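 In this assay, cells in 96-well plates receive the compound at five concentrations for 48 hours. Endpoints are linearly interpolated between the surrounding concentrations. GI50 marks 50% less growth. TGI denotes the concentration required for complete inhibition of growth.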

One assay deals with OVCAR-3 ovarian. The assay can be described thus: NCI anticancer screen, dose series, 48 h.
In the case of `O=C(/C=C/c1cccc(O)c1)c1cccc(-n2cc(-c3ccc4ccccc4c3)[nH]c2=O)c1`, the GI50 was 1.33 µM and the TGI was 2.78 µM.
Consider `COc1ccc2[nH]c(-c3ccc(O)cc3)cc(=O)c2c1`, for which the TGI is 13.1 µM.
Still for that read-out and setting: to `Cc1cc(C)n(C2=NS(=O)(=O)c3ccccc3N2C)n1` belongs > 100 µM; to `O=C1c2cccc3cccc(c23)C(=O)N1O`, > 100 µM.
For `CSc1ccc(N(C)c2nc(C)nc3c2CCC3)cc1`, the GI50 is < 0.01 µM and the TGI was < 0.01 µM.
With `O=C1/C(=C/c2ccc([N+](=O)[O-])cc2)COc2ccc(O)cc21`, the GI50 was 3.26 µM and the TGI stood at 11.8 µM.
Take `CCOC(OC1=C(C#N)CCCC1)C(CC)[Se]c1ccccc1` (stereo not drawn): the TGI stood at 54.6 µM.
As to `COC(=O)c1ccc2c(c1)C(=O)c1c-2n(CCCN=[N+]=[N-])c(=O)c2cc([N+](=O)[O-])ccc12`, the GI50 was > 100 µM and the TGI was > 100 µM.
`C=C1C(=O)C23C(O)C1CC[C@H]2C12CCCC(C)(COC(C)=O)[C@H]1[C@H](O)[C@]3(O)OC2` (stereo partly drawn): the TGI was found to be 2.99 µM.
Same read-out and setting: as for `O=S1CSSC1`, the figure is 58.9 µM; as for `CN(C)C(=S)Nc1nnc(Nc2ccccc2)s1`, > 100 µM; as for `CN1c2ccccc2SC2C(c3ccccc3)=NOC21` (stereo not drawn), > 100 µM.
Same read-out and setting: to `COc1c(O)c(OC)c2oc(-c3ccc(O)cc3)c(OC)c(=O)c2c1O` belongs 74.9 µM.
With `O=[N+]([O-])c1ccc(-c2cc3c(Nc4ccc(Cl)c(C(F)(F)F)c4)ncnc3s2)cc1`, the GI50 was 0.605 µM and the TGI is > 100 µM.
For the molecule `Cc1ccccc1/C=C/C(=O)c1ccccc1`, the TGI was 31 µM.
Same read-out and setting: to `CC1(C)CC(=O)C(CC2C(=O)c3ccccc3C2=O)C(=O)C1` belongs > 100 µM.
As for `CCOC(=O)N1CCN(CCCCCOc2ccccc2C2CCCCC2)CC1`, the GI50 is 8.29 µM and the TGI was 24.1 µM.
As to `Cc1ccc(C)c(N2C(=O)C(=O)C(c3nc4ccccc4s3)C(=Nc3cccc4c(=O)[nH][nH]c(=O)c34)C2=O)c1` (stereo not drawn), the TGI is > 100 µM.
`O=C1c2ccccc2-c2c1c1ccccc1c(=O)n2CCNCCn1c2c(c3ccccc3c1=O)C(=O)c1ccccc1-2`: the GI50 was > 25 µM and the TGI was > 25 µM.
`CCCCCCCCCCCCCC[n+]1cccc(C(N)=O)c1`: the GI50 is 1.93 µM and the TGI was found to be 5.02 µM.
For `Cc1cccc(C)c1N1C(=O)C(=O)C(c2nc3ccccc3s2)C(=Nc2cccc3c(=O)[nH][nH]c(=O)c23)C1=O` (stereo not drawn), the TGI was > 100 µM.
In the case of `C/C1=C\CC[C@@](C)(O)[C@@H]2C[C@H](CC/C(C)=C/CC1)C1(CC1)C(=O)O2`, the GI50 is 22 µM and the TGI amounted to 47.4 µM.
Turning to `COc1cc(C2c3cc4c(cc3[C@@H](Nc3ccc5c(c3)OCCO5)C3COC(=O)[C@H]23)OCO4)cc(OC)c1O` (stereo partly drawn), the TGI was 7.1 µM.

Another assay relates to K-562 leukemia. Briefly: NCI anticancer screen, dose series, 48 h.
Take `O=C(/C=C/c1cccc(O)c1)c1cccc(-n2cc(-c3ccc4ccccc4c3)[nH]c2=O)c1`: the GI50 is 1.43 µM and the TGI amounted to 4.88 µM.
Regarding `COc1ccc2[nH]c(-c3ccc(O)cc3)cc(=O)c2c1`, the TGI was > 48.3 µM.
As to `Cc1cc(C)n(C2=NS(=O)(=O)c3ccccc3N2C)n1`, the TGI was > 100 µM.
Same read-out and setting: as for `O=C1c2cccc3cccc(c23)C(=O)N1O`, the figure is > 100 µM.
For `CSc1ccc(N(C)c2nc(C)nc3c2CCC3)cc1`, the GI50 was < 0.01 µM and the TGI was > 100 µM.
Turning to `O=C1/C(=C/c2ccc([N+](=O)[O-])cc2)COc2ccc(O)cc21`, the GI50 is 2.28 µM and the TGI was > 100 µM.
In the case of `CCOC(OC1=C(C#N)CCCC1)C(CC)[Se]c1ccccc1` (stereo not drawn), the TGI is > 100 µM.
Consider `COC(=O)c1ccc2c(c1)C(=O)c1c-2n(CCCN=[N+]=[N-])c(=O)c2cc([N+](=O)[O-])ccc12`, for which the GI50 was 48 µM and the TGI is > 100 µM.
`C=C1C(=O)C23C(O)C1CC[C@H]2C12CCCC(C)(COC(C)=O)[C@H]1[C@H](O)[C@]3(O)OC2` (stereo partly drawn) came in with a TGI of 1.07 µM.
`O=S1CSSC1` had a TGI of 80.7 µM.
`CN(C)C(=S)Nc1nnc(Nc2ccccc2)s1`: the TGI is > 100 µM.
The same measure, in the same setting: to `CN1c2ccccc2SC2C(c3ccccc3)=NOC21` (stereo not drawn) belongs > 100 µM.
Same read-out and setting: to `COc1c(O)c(OC)c2oc(-c3ccc(O)cc3)c(OC)c(=O)c2c1O` belongs > 100 µM.
On to `O=[N+]([O-])c1ccc(-c2cc3c(Nc4ccc(Cl)c(C(F)(F)F)c4)ncnc3s2)cc1`, for which the GI50 is 0.872 µM and the TGI is > 100 µM.
In turn, `Cc1ccccc1/C=C/C(=O)c1ccccc1` registered a TGI of 49.7 µM.
The same measure, in the same setting: to `CC1(C)CC(=O)C(CC2C(=O)c3ccccc3C2=O)C(=O)C1` belongs > 100 µM.
Take `CCOC(=O)N1CCN(CCCCCOc2ccccc2C2CCCCC2)CC1`: the GI50 is 1.97 µM and the TGI is 10.9 µM.
On to `Cc1ccc(C)c(N2C(=O)C(=O)C(c3nc4ccccc4s3)C(=Nc3cccc4c(=O)[nH][nH]c(=O)c34)C2=O)c1` (stereo not drawn), for which the TGI was > 100 µM.
With `O=C1c2ccccc2-c2c1c1ccccc1c(=O)n2CCNCCn1c2c(c3ccccc3c1=O)C(=O)c1ccccc1-2`, the GI50 was 5.42 µM and the TGI was determined as 16.2 µM.
The like results for `CCCCCCCCCCCCCC[n+]1cccc(C(N)=O)c1` were, in that order, 1.88 µM and 6.53 µM.
Consider `Cc1cccc(C)c1N1C(=O)C(=O)C(c2nc3ccccc3s2)C(=Nc2cccc3c(=O)[nH][nH]c(=O)c23)C1=O` (stereo not drawn), for which the TGI was > 100 µM.
Regarding `C/C1=C\CC[C@@](C)(O)[C@@H]2C[C@H](CC/C(C)=C/CC1)C1(CC1)C(=O)O2`, the GI50 was 13.6 µM and the TGI worked out at 46.6 µM.
In turn, `COc1cc(C2c3cc4c(cc3[C@@H](Nc3ccc5c(c3)OCCO5)C3COC(=O)[C@H]23)OCO4)cc(OC)c1O` (stereo partly drawn) had a TGI of 16.4 µM.

For the next assay, the system named is HOP-62 NSCLC. Briefly: NCI anticancer screen, dose series, 48 h.
In the case of `O=C(/C=C/c1cccc(O)c1)c1cccc(-n2cc(-c3ccc4ccccc4c3)[nH]c2=O)c1`, the GI50 is 2.26 µM and the TGI was 4.29 µM.
Turning to `COc1ccc2[nH]c(-c3ccc(O)cc3)cc(=O)c2c1`, the TGI is > 58.8 µM.
Same read-out and setting: to `Cc1cc(C)n(C2=NS(=O)(=O)c3ccccc3N2C)n1` belongs > 100 µM.
